{
  "source": "paper PMC8192494",
  "about": "(European journal of medicinal chemistry, 2021)",
  "key": {"[1]": {"test_system": "LNCaP (AR+) androgen-sensitive human prostate adenocarcinoma cells", "assay": "MTT antiproliferative activity assay on LNCaP cells", "assay_type": "cell-based", "details": "relative to cyproterone acetate"}, "[2]": {"test_system": "TS-induced growth of LNCaP (AR+) PCa cells", "assay": "Inhibition of testosterone-induced cell proliferation of LNCaP PCa cells", "assay_type": "cell-based, human", "details": "48 h; for reduction relative to the proliferative response induced by 0.1 nM TS: 1 μM dimer"}, "[3]": {"molecular_target": "isolated recombinant CYP3A4 (Homo sapiens, UniProt P08684)", "sequence (P08684 whole entry)": "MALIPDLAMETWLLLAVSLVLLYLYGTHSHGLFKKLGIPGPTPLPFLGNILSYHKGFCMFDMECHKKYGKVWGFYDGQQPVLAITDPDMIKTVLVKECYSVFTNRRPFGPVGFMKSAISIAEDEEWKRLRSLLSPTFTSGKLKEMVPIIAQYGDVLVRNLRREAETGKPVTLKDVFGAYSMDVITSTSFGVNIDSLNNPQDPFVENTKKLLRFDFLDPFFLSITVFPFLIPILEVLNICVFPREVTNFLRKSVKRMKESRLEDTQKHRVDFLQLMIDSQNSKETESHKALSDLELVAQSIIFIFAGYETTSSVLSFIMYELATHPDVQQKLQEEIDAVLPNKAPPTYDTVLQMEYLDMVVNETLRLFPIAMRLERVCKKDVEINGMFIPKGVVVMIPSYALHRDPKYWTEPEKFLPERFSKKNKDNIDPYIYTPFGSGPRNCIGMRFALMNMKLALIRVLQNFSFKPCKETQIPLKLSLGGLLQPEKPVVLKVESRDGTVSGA", "assay": "Equilibrium ligand binding to CYP3A4", "details": "for high spin: high spin content of ligand-bound CYP3A4, mean of three ± SD; for Kd, fold lower than for 14β: relative to 14β"}, "[4]": {"test_system": "DHT-induced growth of LNCaP (AR+) PCa cells", "assay": "Inhibition of dihydrotestosterone-induced cell proliferation of LNCaP PCa cells", "details": "0.1 nM DHT, 48 h; for inhibition of growth induced by DHT: 0.125 μM dimer"}, "[5]": {"test_system": "PC3 (AR−) androgen-insensitive human prostate adenocarcinoma cells", "assay": "MTT antiproliferative activity assay on PC3 cells", "assay_type": "cell-based", "details": "read-out: IC50 PC3 (AR−), 48 h, concentration inhibiting cell growth by 50%"}, "[6]": {"test_system": "LNCaP, PC3 and DU145 prostate cancer cells", "assay": "MTT antiproliferative activity, summarised over the three PCa cell lines", "assay_type": "cell-based", "details": "Homo sapiens, read-out: IC50 range on different cell lines"}, "LNCaP (AR+) PCa cells": {"test_system": "LNCaP (AR+) PCa cells", "details": "read-out: IC50 LNCaP (AR+); MTT antiproliferative assay; cited from earlier work"}, "PC3 (AR−) PCa cells": {"test_system": "PC3 (AR−) PCa cells", "details": "read-out: IC50 PC3 (AR−); MTT antiproliferative assay; cited from earlier work"}},
  "note": "Values joined by “and” are separate entries in the source; they are usually repeats but may differ in a detail not shown here. Identical values can stand only once.",
  "data": [
    {"smiles": "C[C@]12CC[C@H]3[C@@H]([C@H](/C=C/C=C/C=C/[C@@H]4CC5=CC(=O)CC[C@]5(C)[C@H]5CC[C@]6(C)[C@@H](O)CC[C@H]6[C@H]45)CC4=CC(=O)CC[C@@]43C)[C@@H]1CC[C@@H]2O", "note": "(relative stereo) [Compound 14β, trans, trans,trans-1,6-bis-(17β-hydroxy-4-androsten-3-one-7α-yl)hexatriene]", "values": [
      {"measurement": "times more active than CPA (IC50 ratio)", "setting": "[1]", "result": "~ 5 times"},
      {"measurement": "concentration at which 100% effective against TS-induced cell proliferation", "setting": "[2]; 0.1 nM TS", "result": 0.5, "unit": "µM"},
      {"measurement": "inhibition of growth induced by TS", "setting": "[2]; 0.125 μM dimer, 0.1 nM TS", "result": "at least 45%"},
      {"measurement": "reduction relative to the proliferative response induced by 0.1 nM TS", "setting": "[2]", "result": 104, "unit": "%"},
      {"measurement": "high spin", "setting": "[3]", "result": "49 ± 3", "unit": "%"},
      {"measurement": "concentration at which 100% effective against DHT-induced cell proliferation", "setting": "[4]", "result": 1, "unit": "µM"},
      {"measurement": "inhibition of growth induced by DHT", "setting": "[4]", "result": "at least 45%"}
    ]},
    {"smiles": "C=CC=C[C@@H]1CC2=CC(=O)CC[C@]2(C)[C@H]2CC[C@]3(C)[C@@H](O)CC[C@H]3[C@H]12", "note": "[Compound 13β, 7α-(buta-1,3-dienyl)-4-androsten-17β-ol-3-one]", "values": [
      {"measurement": "IC50", "setting": "[5]", "result": 34.1, "unit": "µM"}
    ]},
    {"smiles": "C[C@]12CC[C@H]3[C@@H]([C@H](/C=C/C=C/C=C/[C@@H]4CC5=CC(=O)CC[C@]5(C)[C@H]5CC[C@]6(C)[C@H](O)CC[C@H]6[C@H]45)CC4=CC(=O)CC[C@@]43C)[C@@H]1CC[C@H]2O", "note": "(relative stereo) [Compound 14α, trans, trans,trans-1,6-bis-(17α-hydroxy-4-androsten-3-one-7α-yl)hexatriene]", "values": [
      {"measurement": "concentration at which 100% effective against TS-induced cell proliferation", "setting": "[2]; 0.1 nM TS", "result": 0.25, "unit": "µM"},
      {"measurement": "reduction relative to the proliferative response induced by 0.1 nM TS", "setting": "[2]", "result": "~ 141%"},
      {"measurement": "high spin", "setting": "[3]", "result": "46 ± 3", "unit": "%"},
      {"measurement": "Kd, fold lower than for 14β", "setting": "[3]", "result": "~ 4 fold"},
      {"measurement": "concentration at which 100% effective against DHT-induced cell proliferation", "setting": "[4]", "result": 1, "unit": "µM"},
      {"measurement": "inhibition of growth induced by DHT", "setting": "[4]", "result": "at least 45%"}
    ]},
    {"smiles": "C[C@]12CCC(=O)C=C1C[C@@H](/C=C/C=C/C=C/[C@@H]1CC3=CC(=O)CC[C@]3(C)[C@H]3CC[C@]4(C)C(=O)CC[C@H]4[C@H]13)[C@@H]1[C@@H]2CC[C@]2(C)C(=O)CC[C@@H]12", "note": "[Compound 14, trans, trans,trans-1,6-bis-(4-androsten-3,17-dione-7α-yl)hexatriene]", "values": [
      {"measurement": "high spin", "setting": "[3]", "result": "36 ± 2", "unit": "%"},
      {"measurement": "Kd, fold lower than for 14β", "setting": "[3]", "result": "~ 4 fold"},
      {"measurement": "IC50", "setting": "[6]", "result": "29 to 72.7", "unit": "µM"}
    ]},
    {"smiles": "C=CC=C[C@@H]1CC2=CC(=O)CC[C@]2(C)[C@H]2CC[C@]3(C)[C@H](O)CC[C@H]3[C@H]12", "note": "[Compound 13α, 7α-(buta-1,3-dienyl)-4-androsten-17α-ol-3-one]", "values": [
      {"measurement": "times more active than CPA (IC50 ratio)", "setting": "[1]", "result": "about 4 times"},
      {"measurement": "IC50", "setting": "[5]", "result": 31.5, "unit": "µM"}
    ]},
    {"smiles": "C[C@]12CC[C@H]3[C@@H]([C@H](C/C=C\\C[C@@H]4CC5=CC(=O)CC[C@]5(C)[C@H]5CC[C@]6(C)[C@@H](O)CC[C@H]6[C@H]45)CC4=CC(=O)CC[C@@]43C)[C@@H]1CC[C@@H]2O", "note": "[cis-10]", "values": [
      {"measurement": "IC50", "setting": "LNCaP (AR+) PCa cells", "result": 30.3, "unit": "µM"},
      {"measurement": "IC50", "setting": "PC3 (AR−) PCa cells", "result": 24.7, "unit": "µM"},
      {"measurement": "high spin", "setting": "[3]", "result": "99 ± 1", "unit": "%"}
    ]},
    {"smiles": "C[C@]12CC[C@H]3[C@@H]([C@H]([C@H]4C=CC[C@H]5C(=O)OC(=O)[C@@H]45)CC4=CC(=O)CC[C@@]43C)[C@@H]1CC[C@@H]2O", "note": "[Compound 15, 4-(17β-hydroxy-4-androsten-3-one-7α-yl)-3a,4,7,7a-tetrahydro-isobenzofuran-1,3-dione]", "values": [
      {"measurement": "IC50", "setting": "[6]", "result": "62.5 to 131", "unit": "µM"}
    ]},
    {"smiles": "C[C@]12CC[C@H]3[C@@H]([C@H](C/C=C/C[C@@H]4CC5=CC(=O)CC[C@]5(C)[C@H]5CC[C@]6(C)[C@@H](O)CC[C@H]6[C@H]45)CC4=CC(=O)CC[C@@]43C)[C@@H]1CC[C@@H]2O", "note": "[trans-10, reference compound]", "values": [
      {"measurement": "high spin", "setting": "[3]", "result": "65% and 65 ± 4%"}
    ]}
  ]
}
